Experiments:
[1] = tested on: P. yoelii sporozoites in HepG2-A16-CD81EGFP cells; assay: P. yoelii sporozoite invasion assay (proliferation of parasite in infected liver cells, immunofluorescence); assay type: cell-based; settings: Plasmodium yoelii, 48 hours, parasite area by immunofluorescence, read-out: EC50 (nM), inhibitory efficacy by the P. yoelii sporozoite invasion assay
Description: Assay for Profiferation of Parasite in Infected Liver Cells
Compounds of the invention can be assayed to measure their capacity to inhibit proliferation of parasites in liver cells. The proliferation is quantified by determine the number of infected cells by immunofluorescence.
Due to the difficulty of successfully infecting immortalized human liver cell lines with the human malaria sporozoites (liver-stage parasite), rodent malaria sporozoites from Plasmodium yoelii (17XNL) and P. berghei (ANKA) are the preferred surrogate. Sporozoites are obtained from Anopheles stephensi mosquitoes supplied by the New York University Insectary, which ships the malaria-infected mosquitoes 10-13 days following the ingestion of an infective blood meal.
A transgenic HepG2 cell line expressing the tetraspanin CD81 receptor (HepG2-A16-CD81^EGFP) is used to increase the infectivity rate of rodent-malaria sporozoites into human cells. HepG2-A16-CD81^EGFP cells are stably transformed to express a GFP-CD81 fusion protein. A continuous in vitro culture of this line was maintained at 37° C. in 4% CO2 in complete media (CM) which contains: DMEM (Invitrogen, Carlsbad, USA) supplemented with 10% FCS, 0.29 mg/ml glutamine, 100 units penicillin and 100 μg/ml streptomycin (SigmaAldrich, USA).
P. yoelii Sporozoite Invasion Assay
Twenty to twenty-six hours prior to sporozoite infection, 7.5×10^3 HepG2-A16-CD81^EGFP cells are seeded into 384-well plates (Aurora 384 IQ-EB black plates with clear bottoms; 50 μl of 1.5×10^5 cells/ml in CM). These plates are incubated at 37° C. with 4% CO2 overnight. Two hours prior to infection, 50 nl of compound dissolved in DMSO (0.1% final DMSO concentration per well) were transferred with a PinTool (GNF Systems) into the assay plates (10 μM final concentration). A 1:3 serial dilution of atovaquone (10 μM at the highest final concentration) and wells treated only with DMSO were used as positive and negative controls, respectively.
Freshly dissected salivary glands from infected mosquitoes were homogenized in a glass tissue grinder, filtered twice through Nylon cell strainers (40 μm pore size, BD Falcon) and counted using a hemocytometer. The assay plate with HepG2-A16-CD81^EGFP cells and compound were then infected with 8×10^3 sporozoitesper well and the plates are subjected to a centrifugal force of 650×g to pellet the sporozoites onto the liver cell monolayer. The assay plate is incubated at 37° C. for 2 hours to permit sporozoite invasion, then the media is aspirated from the media plate, and replaced with 50 μl CM (containing a 5× concentration of penicillin/streptomycin; 500 units penicillin and 0.5 mg streptomycin per ml) per well. 50 nl of compound is re-introduced by PinTool and the assay plate incubated for 48 hours at 37° C. before quantification of infected cells by immunofluorescence.
Atovaquone and uninfected wells were used as controls on each plate. Two replicate plates are tested for each assay.
Immunofluorescence Quantification of Exo-Erythrocytic Forms (EEFs)
After fixing the cells by addition of 12.5 μl of 20% solution of paraformaldehyde (EMS, Hatfield, USA) to each assay well (4% final formaldehyde concentration), membranes were permeabilized with 0.5% Triton-X-100 (Thermo Fisher Scientific) and EEFs were stained using a mouse polyclonal serum raised against the Plasmodium yoelii heat shock protein 70 (PyHSP70), a DyLight 649 goat anti-mouse IgG, Fc(gamma) fragment specific secondary antibody (Jackson Immuno Research, Cat#115-495-071) and the Hoechst 33342 nucleic acid dye (Invitrogen, Carlsbad, USA). Stained EEFs were then quantified using the Opera Confocal High Content Screening System (Perkin Elmer, Waltham, USA). Images were collected using a 20× objective lens (20×/0.45 NA, LWD Plan Fluor, Olympus) at a binning of 2, using a 365 nm Xeon arc lamp illumination to detect the Hoechst-labeled nuclei and 635 nm laser line to excite DyLight649-labeled parasites. […]

[2] = tested on: P. falciparum (NF54 or 3D7 strain) in infected human erythrocytes; assay: Assay for P. falciparum proliferation in infected human blood cells (SYBR Green); assay type: cell-based; settings: Plasmodium falciparum, Erythrocyte; NF54 or 3D7 strain, 72 hours, SYBR Green fluorescence; read-out: EC50 (nM), inhibitory efficacy in delaying P. falciparum proliferation in infected human blood cells
Protocol: Assay for P. falciparum Proliferation in Infected Human Blood Cells
Compounds of the invention can be assayed to measure their capacity to inhibit proliferation of P. falciparum parasitemia in infected red blood cells. This parasite proliferation assay measures the increase in parasite DNA content using a DNA intercalating dye, SYBR Green® (INVITROGEN®) which has a high affinity for double stranded DNA.
NF54 or 3D7 P. falciparum strain is grown in complete culturing media until parasitemia reaches 3% to 8% with O+ human erythrocytes. […] 20 μl of screening media is dispensed into 384 well assay plates. 50 nl of compounds of the invention (in DMSO), including antimalarial controls (mefloquine, pyrimethamine and artemisinin), are then transferred into the assay plates, as well as DMSO alone to serve as a negative control for inhibition. Then 30 μl of a suspension of a NF54 or 3D7 P. falciparum infected erythrocytes in screening media is dispensed into the assay plates such that the final hematocrit is 2.5% with a final parasitemia of 0.3%. The plates are placed in a 37° C. incubator for 72 hours in a low oxygen environment containing 93% N2, 4% CO2, and 3% O2 gas mixture. 10 μl of lysis buffer (saponin, triton-X, EDTA) containing a 10× solution of SYBR Green I® in RPMI media is dispensed into the plates. The plates are lidded and kept at room temperature overnight for the lysis of the infected red blood cells. The fluorescence intensity is measured (excitation […], emission 530 nm) using the Envision™ system (Perkin Elmer). The percentage inhibition of 50%, […], is calculated for each compound.

SMILES | EC50 [1] [nM] | EC50 [2] [nM]
CN(C(=O)c1ccn2ncc(-c3ccc(C(N)=O)cn3)c2c1)c1ccc(C#N)cc1 [Example 27, 3-(5-carbamoylpyridin-2-yl)-N-(4-cyanophenyl)-N-methylpyrazolo[1,5-a]pyridine-5-carboxamide] | 201 | 10
CN(C(=O)c1ccc(C#N)cc1)c1ccn2ncc(-c3ccc(C(F)(F)F)cc3)c2c1 [Example 28, 4-cyano-N-methyl-N-(3-(4-(trifluoromethyl)phenyl)pyrazolo[1,5-a]pyridine-5-yl)benzamide] | 23.2 | 7
CN(C(=O)c1ccn2ncc(-c3ccc(C(N)=O)cc3)c2c1)c1ccc(C#N)cn1 [Example 32, 3-(4-carbamoylphenyl)-N-(5-cyanopyridin-2-yl)-N-methylpyrazolo[1,5-a]pyridine-5-carboxamide] | 8 | 1
CN(C(=O)c1ccn2ncc(-c3cnc4[nH]ccc4c3)c2c1)c1ccc(C#N)cc1 [Example 40, N-(4-cyanophenyl)-N-methyl-3-(1H-pyrrolo[2,3-b]pyridin-5-yl)pyrazolo[1,5-a]pyridine-5-carboxamide] | 63.1 | 1
CN(C(=O)c1ccn2ncc(-c3ccc(N)nc3)c2c1)c1ccc(C#N)cc1 [Example 41, 3-(6-aminopyridin-3-yl)-N-(4-cyanophenyl)-N-methylpyrazolo[1,5-a]pyridine-5-carboxamide] | 14.3 | 2
CN(C(=O)c1ccn2ncc(-c3ccc(N)nc3)c2c1)c1ccc(C#N)cn1 [Example 54, 3-(6-aminopyridin-3-yl)-N-(5-cyanopyridin-2-yl)-N-methylpyrazolo[1,5-a]pyridine-5-carboxamide] | 79 | 9
CN(C(=O)c1ccn2ncc(-c3ccc(C(N)=O)cc3)c2c1)c1ccc(F)cc1 [Example 20, 3-(4-carbamoylphenyl)-N-(4-fluorophenyl)-N-methylpyrazolo[1,5-a]pyridine-5-carboxamide] | 13.5 | 9
CN(C(=O)c1ccn2ncc(-c3ccc(C(N)=O)cc3)c2c1)c1ccc(C#N)cc1 [Example 19, 3-(4-carbamoylphenyl)-N-(4-cyanophenyl)-N-methylpyrazolo[1,5-a]pyridine-5-carboxamide] | 4.3 | 1
CN(C(=O)c1ccn2ncc(-c3ccc(C(F)(F)F)cc3)c2c1)c1ccc(C#N)cc1 [Example 1, N-(4-cyanophenyl)-N-methyl-3-(4-(trifluoromethyl)phenyl)pyrazolo[1,5-a]pyridine-5-carboxamide] | 7.3 | 8
CN(C(=O)c1ccn2ncc(-c3ccc(C(F)(F)F)cc3)c2c1)c1ccc(S(C)(=O)=O)cn1 [Example 34, N-methyl-N-(5-(methylsulfonyl)114yridine-2-yl)-3-(4-(trifluoromethyl)phenyl)pyrazolo[1,5-a]pyridine-5-carboxamide] | 53.2 | 22
CNC(=O)c1ccc(-c2cnn3ccc(C(=O)N(C)c4ccc(C#N)cn4)cc23)cc1 [Example 75, N-(5-cyanopyridin-2-yl)-N-methyl-3-(4-(methylcarbamoyl)phenyl)pyrazolo[1,5-a]pyridine-5-carboxamide] | 2.25 | 4
CNC(=O)c1ccc(-c2cnn3ccc(C(=O)N(C)c4ccc(C#N)cc4)cc23)cc1 [Example 67, N-(4-cyanophenyl)-N-methyl-3-(4-(methylcarbamoyl)phenyl)pyrazolo[1,5-a]pyridine-5-carboxamide] | 4.6 | 5
CN(C(=O)c1ccn2ncc(-c3ccc(C(F)(F)F)cc3)c2c1)c1ccc(C#N)cn1 [Example 13, N-(5-cyanopyridin-2-yl)-N-methyl-3-(4-(trifluoromethyl)phenyl)pyrazolo[1,5-a]pyridine-5-carboxamide] | 17.9 | 8
CN(Cc1ccn2ncc(-c3ccc(C(F)(F)F)cc3)c2c1)c1ccc(Cl)cc1 [Example 6, 4-chloro-N-methyl-N-((3-(4-(trifluoromethyl)phenyl)pyrazolo[1,5-a]pyridine-5-yl)methyl)aniline] |  | 284
CN(C(=O)c1ccn2ncc(-c3cnc(N)c(C(F)(F)F)c3)c2c1)c1ccc(C#N)cn1 [Example 84, 3-(6-amino-5-(trifluoromethyl)pyridin-3-yl)-N-(5-cyanopyridin-2-yl)-N-methylpyrazolo[1,5-a]pyridine-5-carboxamide] |  | 6
COCCN(C(=O)c1ccn2ncc(-c3ccc(C(F)(F)F)cc3)c2c1)c1ccc(C#N)cc1 [Example 9, N-(4-cyanophenyl)-N-(2-methoxyethyl)-3-(4-(trifluoromethyl)phenyl)pyrazolo[1,5-a]pyridine-5-carboxamide] |  | 6
N#Cc1ccc(C(=O)N(CC2CCOCC2)c2ccn3ncc(-c4ccc(C(F)(F)F)cc4)c3c2)cc1 [Example 39, 4-cyano-N-((tetrahydro-2H-pyran-4-yl)methyl)-N-(3-(4-(trifluoromethyl)phenyl)pyrazolo[1,5-a]pyridin-5-yl)benzamide] |  | 831
CS(=O)(=O)c1ccc(N(CC2CCOCC2)C(=O)c2ccn3ncc(-c4ccc(C(F)(F)F)cc4)c3c2)cc1 [Example 12, N-(4-(methylsulfonyl)phenyl)-N-((tetrahydro-2H-pyran-4-yl)methyl)-3-(4-(trifluoromethyl)phenyl)pyrazolo[1,5-a]pyridine-5-carboxamide] |  | 9
Cc1cc(-c2cnn3ccc(C(=O)N(C)c4ccc(C#N)cc4)cc23)cnc1N [Example 81, 3-(6-amino-5-methylpyridin-3-yl)-N-(4-cyanophenyl)-N-methylpyrazolo[1,5-a]pyridine-5-carboxamide] |  | 36
CN(C(=O)c1ccn2ncc(-c3ccc4c(cnn4C)c3)c2c1)c1ccc(C#N)cc1 [Example 17, N-(4-cyanophenyl)-N-methyl-3-(1-methyl-1H-indazol-5-yl)pyrazolo[1,5-a]pyridine-5-carboxamide] |  | 3
CN(C(=O)c1ccc(F)cn1)c1ccn2ncc(-c3ccc(C(F)(F)F)cc3)c2c1 [Example 51, 5-fluoro-N-methyl-N-(3-(4-(trifluoromethyl)phenyl)pyrazolo[1,5-a]pyridin-5-yl)picolinamide] |  | 60

Reference: patent publication US8871754B2, “Compounds and compositions for the treatment of parasitic diseases” (IRM LLC, priority 2012, dated 2014)
